Reference: US10800741B2 (ANCUREALL PHARMACEUTICAL (SHANGHAI) CO., LTD., priority 2017, dated 2020)

Tests used:
Assay type in all cases: cell-based, Human
H1703 (PDGFRa amp) = experiment: In vitro growth inhibition of H1703 tumor cells (MTT/CCK8); conditions: Homo sapiens, NCI-H1703; in vitro growth inhibition (or induction of apoptosis), cells cultured 3 to 5 days, MTT (CCK8); read-out: IC50 H1703 (PDGFRa amp)
From the text: (§1) Tumor cell lines are an effective model for studying in vitro tumor growth inhibition. In the present invention, a representative tumor cell line was selected to determine the cell growth inhibition activity of the present compound. All cell lines used were from ATCC, DSMZ, and cell banks of the Chinese Academy of Sciences. Cell culture conditions and methods were in accordance with the requirements of each cell line. Cells were subcultured in vitro for no more than 3 generations each time, and as required, single-clone purification and identification of cell lines could be carried out.
(§2) The cell culture media used were RPMI1640 (Gibco), DMEM (Gibco), MEM (Gibco), L15 (Gibco), IMDM (Gibco), McCOY'S5A, and William's (Gibco). 5-20% fetal bovine serum (Gibco), 1% double antibiotic, 2 mM glutamine, or 1 mM sodium pyruvate were added. The names, species, major gene characteristics, culture media and cell sources of the cell lines used are shown in table 1, wherein “amp” refers to gene amplification. “+++” refers to gene overexpression. The main genetic characteristics of cells were obtained from the COSMIC Cell Lines Project and related research papers, respectively.
(§3) Adherent cells were digested with 0.25% trypsin-EDTA (Gibco). Suspension culture cells were collected by centrifugation (1700 rpm, 3 minutes). The supernatant was discarded and the cells were counted. According to each cell growth cycle, different concentrations of cells were prepared (5˜10×10^4 cells per ml), and inoculated to 96-well plates (Corning), with 100 μl per well, and incubated overnight at 37° C., 5% CO2. The next day, the test compound was added to the cultured cells (2 wells in parallel). The final concentration of the solvent was less than 1/1,000. The cells were further cultured for 3 to 5 days and assayed by MTT.
(§4) The compound was stored at a concentration of 10 mM at −20° C. and diluted to 2- or 10-fold series prior to use. BGJ398 and AC220 were synthesized according to the methods of WO2006420A1 and US2007232604A1, respectively.
(§5) The adherent cells were taken out from the cell culture medium, and immediately added to a freshly prepared complete medium containing 10% CCK8 (5% FBS), 100 ul per hole. The suspended cells were directly added to a CCK8 reagent until reaching a final concentration of 10% and cultured for 1 to 4 hours.
(§6) T=optical density of drug-treated cell wells−optical density of blank control wells; T0=optical density of cell wells before drug treatment−optical density of blank control wells; C=optical density of solvent control wells−optical density of blank control wells. […] The experiments were repeated 1 to 3 times and a statistical analysis of data was conducted.

Kasumi-1 (KIT N822K) = experiment: In vitro growth inhibition of Kasumi-1 tumor cells (MTT/CCK8); conditions: Homo sapiens, Kasumi 1; in vitro growth inhibition (or induction of apoptosis), cells cultured 3 to 5 days, MTT (CCK8); read-out: IC50 Kasumi-1 (KIT N822K)
From the text: as §1, §2, §3, §4, §5, §6

KATO III (FGFR2 amp) = experiment: In vitro growth inhibition of KATO III tumor cells (MTT/CCK8); conditions: Homo sapiens, KATO III; in vitro growth inhibition (or induction of apoptosis), cells cultured 3 to 5 days, MTT (CCK8); read-out: IC50 KATO III (FGFR2 amp)
From the text: as §1, §2, §3, §4, §5, §6

MOLM-13 (FLT3-ITD) = experiment: In vitro growth inhibition of MOLM-13 tumor cells (MTT/CCK8); conditions: Homo sapiens, MOLM-13; in vitro growth inhibition (or induction of apoptosis), cells cultured 3 to 5 days, MTT (CCK8); read-out: IC50 MOLM-13 (FLT3-ITD)
From the text: as §1, §2, §3, §4, §5, §6

Karpas 299 (NPM-ALK) = experiment: In vitro growth inhibition of Karpas 299 tumor cells (MTT/CCK8); conditions: Homo sapiens, KARPAS-299; in vitro growth inhibition (or induction of apoptosis), cells cultured 3 to 5 days, MTT (CCK8); read-out: IC50 Karpas 299 (NPM-ALK)
From the text: as §1, §2, §3, §4, §5, §6

KCL-22 (BCR-ABL) = experiment: In vitro growth inhibition of KCL-22 tumor cells (MTT/CCK8); conditions: Homo sapiens, KCL-22; in vitro growth inhibition (or induction of apoptosis), cells cultured 3 to 5 days, MTT (CCK8); read-out: IC50 KCL-22 (BCR-ABL)
From the text: as §1, §2, §3, §4, §5, §6

Hep3B2 (FGFR3/4+++) = experiment: In vitro growth inhibition of Hep3B2 tumor cells (MTT/CCK8); conditions: Homo sapiens, Hep3B; in vitro growth inhibition (or induction of apoptosis), cells cultured 3 to 5 days, MTT (CCK8); read-out: IC50 Hep3B2 (FGFR3/4+++)
From the text: as §1, §2, §3, §4, §5, §6

H1581 (FGFR1 amp) = experiment: In vitro growth inhibition of H1581 tumor cells (MTT/CCK8); conditions: Homo sapiens, NCI-H1581; in vitro growth inhibition (or induction of apoptosis), cells cultured 3 to 5 days, MTT (CCK8); read-out: IC50 H1581 (FGFR1 amp)
From the text: as §1, §2, §3, §4, §5, §6

| SMILES | IC50 (H1703 (PDGFRa amp)) | IC50 (Kasumi-1 (KIT N822K)) | IC50 (KATO III (FGFR2 amp)) | IC50 (MOLM-13 (FLT3-ITD)) | IC50 (Karpas 299 (NPM-ALK)) | IC50 (KCL-22 (BCR-ABL)) | IC50 (Hep3B2 (FGFR3/4+++)) | IC50 (H1581 (FGFR1 amp)) |
| --- | --- | --- | --- | --- | --- | --- | --- | --- |
| COc1cc2nccc(Oc3ccc(NC(=O)Nc4cc(C(C)(C)C)on4)c(Cl)c3)c2cc1C(N)=O [Compound 2, 4-{4-[3-(5-tert-butyl-isoxazol-3-yl)-ureido]-3-chloro-phenoxy}-7-methoxyquinolin-6-carboxamide] | 0.0079 µM | 0.0261 µM | 0.00051 µM | 0.00649 µM | 0.587 µM | 0.00758 µM | 0.0256 µM | 0.00335 µM |
| COc1cc2nccc(Oc3ccc(NC(=O)Nc4cc(C(C)(C)C)on4)c(Br)c3)c2cc1C(N)=O [Compound 3, 4-{3-bromo-4-[3-(5-tert-butyl-isoxazol-3-yl)-ureido]-phenoxy}-7-methoxyquinolin-6-carboxamide] | 0.0166 µM | 0.0278 µM | 0.00146 µM | 0.0354 µM | 0.725 µM | 0.014 µM | 0.0274 µM | 0.00687 µM |
| COc1cc2nccc(Oc3ccc(NC(=O)Nc4cc(C(C)(C)C)on4)c(C(F)(F)F)c3)c2cc1C(N)=O [Compound 4] | 0.0218 µM | 0.0145 µM | 0.00293 µM | 0.122 µM | 0.756 µM | 0.0104 µM | 0.0278 µM | 0.0132 µM |
| COc1cc(Oc2ccnc3cc(OC)c(C(N)=O)cc23)ccc1NC(=O)Nc1cc(C(C)(C)C)on1 [Compound 5, 4-{4-[3-(5-tert-butyl-isoxazol-3-yl)-ureido]-3-methoxy-phenoxy}-7-methoxyquinolin-6-carboxamide] | 0.0188 µM | 0.0129 µM | 0.00976 µM | 0.00426 µM | > 1 µM | 0.00215 µM | 0.156 µM | 0.0653 µM |
| COc1cc2nccc(Oc3ccc(NC(=O)Nc4cc(C(C)(C)C)on4)c(C)c3)c2cc1C(N)=O [Compound 6, 4-{4-[3-(5-tert-butyl-isoxazol-3-yl)-ureido]-3-methyl-phenoxy}-7-methoxyquinolin-6-carboxamide] | 0.0156 µM | 0.0261 µM | 0.00286 µM | 0.0209 µM | 0.689 µM | 0.0178 µM | 0.0453 µM | 0.0106 µM |
| COc1cc2nccc(Oc3ccc(NC(=O)Nc4cc(C(C)(C)C)on4)c(N4CCN(C)CC4)c3)c2cc1C(N)=O [Compound 10, 4-[4-[3-(5-tert-butyl-isoxazol-3-yl)-ureido]-3-(4-methyl-piperazin-1-yl)-phenoxy]-7-methoxyquinolin-6-carboxamide] | > 1 µM | 0.0719 µM | > 1 µM | > 1 µM | > 1 µM | > 1 µM | > 1 µM | > 1 µM |
| COc1cc2nccc(Oc3ccc(N(C)C(=O)Nc4cc(C(C)(C)C)on4)cc3)c2cc1C(N)=O [Compound 11, 4-{4-[3-(5-tert-butyl-isoxazol-3-yl)-1-methyl-ureido]-phenoxy}-7-methoxyquinolin-6-carboxamide] | 0.0204 µM | 0.0898 µM | 0.0121 µM | 0.00241 µM | > 1 µM | 0.0281 µM | 0.677 µM | 0.27 µM |
| COc1cc2nccc(Oc3ccc(NC(=O)N(C)c4cc(C(C)(C)C)on4)c(Cl)c3)c2cc1C(N)=O [Compound 12, 4-{4-[3-(5-tert-butyl-isoxazol-3-yl)-3-methyl-ureido]-3-chloro-phenoxy}-7-methoxyquinolin-6-carboxamide] | 0.139 µM | 0.389 µM | 0.103 µM | 0.122 µM | > 1 µM | 0.114 µM | 0.791 µM | 0.584 µM |
| CC(C)(C)c1cc(NC(=O)Nc2ccc(Oc3ccnc4cc(OCCCN5CCN(c6ccccc6)CC5)c(C(N)=O)cc34)cc2Cl)[nH]n1 [Compound 86, 4-{4-[3-(5-tert-butyl-2H-pyrazol-3-yl)-ureido]-3-chloro-phenoxy}-7-[3-(4-phenyl-piperazin-1-yl)-propoxy]-quinolin-6-carboxamide] | 0.37 µM | 0.0763 µM | 0.0683 µM |  | 0.6 µM |  | 0.0851 µM | 0.326 µM |

Second part, the molecule after the results:

| IC50 (H1703 (PDGFRa amp)) | IC50 (Kasumi-1 (KIT N822K)) | IC50 (KATO III (FGFR2 amp)) | IC50 (MOLM-13 (FLT3-ITD)) | IC50 (Karpas 299 (NPM-ALK)) | IC50 (KCL-22 (BCR-ABL)) | IC50 (Hep3B2 (FGFR3/4+++)) | IC50 (H1581 (FGFR1 amp)) | SMILES |
| --- | --- | --- | --- | --- | --- | --- | --- | --- |
| 0.0125 µM | 0.00419 µM | 0.00102 µM | 0.00365 µM | 0.144 µM | 0.0551 µM | 0.0572 µM |  | CC(C)(C)c1cc(NC(=O)Nc2ccc(Oc3ccnc4cc(OCCCN5CCN(C(C)(C)C)CC5)c(C(N)=O)cc34)cc2Cl)[nH]n1 [Compound 87, 7-[3-(4-tert-butyl-piperazin-1-yl)-propoxy]-4-{4-[3-(5-tert-butyl-2H-pyrazol-3-yl)-ureido]-3-chlorophenoxy}-quinolin-6-carboxamide] |
| 0.0556 µM | 0.0156 µM | 0.00567 µM | 0.00549 µM | 0.153 µM | 0.282 µM | 0.175 µM |  | CN1CCCN(CCCOc2cc3nccc(Oc4ccc(NC(=O)Nc5cc(C(C)(C)C)n[nH]5)c(Cl)c4)c3cc2C(N)=O)CC1 [Compound 88, 4-{4-[3-(5-tert-butyl-2H-pyrazol-3-yl)-ureido]-3-chloro-phenoxy}-7-[3-(4-methyl-[1,4]-1-yl)-propoxy]-quinolin-6-carboxamide] |
| 0.0131 µM | 0.00448 µM | 0.00112 µM | 0.00643 µM | 0.146 µM | 0.045 µM | 0.0194 µM |  | CC(C)CN1CCN(CCCOc2cc3nccc(Oc4ccc(NC(=O)Nc5cc(C(C)(C)C)n[nH]5)c(Cl)c4)c3cc2C(N)=O)CC1 [Compound 89, 4-{4-[3-(5-tert-butyl-2H-pyrazol-3-yl)-ureido]-3-chloro-phenoxy}-7-[3-(4-isobutyl-piperazin-1-yl)-propoxy]-quinolin-6-carboxamide] |
| 0.00475 µM | 0.000375 µM | 0.0001 µM |  | 0.0557 µM | 0.00107 µM | 0.00841 µM | 0.00298 µM | COc1cc2nccc(Oc3ccc(NC(=O)Nc4cc(C(C)(C)C)nn4C)c(Cl)c3C)c2cc1C(N)=O [Compound 111, 4-{4-[3-(5-tert-butyl-2-methyl-2H-pyrazol-3-yl)-ureido]-3-chloro-2-methyl-phenoxy}-7-methoxy-carboxamide] |
| 0.0173 µM | 0.000406 µM | 0.00023 µM |  | 0.1 µM | 0.00269 µM | 0.0158 µM | 0.00302 µM | COc1cc2nccc(Oc3ccc(NC(=O)Nc4cc(C(C)(C)C)n[nH]4)c(Cl)c3C)c2cc1C(N)=O [Compound 112, 4-{4-[3-(5-tert-butyl-2H-pyrazol-3-yl)-ureido]-3-chloro-2-methyl-phenoxy}-7-methoxy-quinolin-6-carboxamide] |
